Article PMC8632988, “Inhibition of SYK and cSrc kinases can protect bone and cartilage in preclinical models of osteoarthritis and rheumatoid arthritis” (Scientific Reports, 2021)
“And” between values parts separate entries of the source, which are not always exact repeats. Equal values may be shown once.

System: DBA/1 mice, CIA model
Test: Collagen-induced arthritis model in mice
Format: in vivo, mouse
Details: QD
Procedure: Collagen-induced arthritis (CIA) model was performed at Bolder BioPATH, USA. Study design and animal usage was approved by Bolder BioPATH’s Institutional Animal Care and Use Committee. CIA was induced in 6–7 week old male DBA/1 mice with body weight of 15–26 g (Harlan, Inc) by intradermal injection of Freund’s Complete Adjuvant (Difco) containing bovine type II collagen (Bolder BioPATH) on day 0 and again on day 21 according to the standard protocol. […] After that mice were randomized into six groups: a control group of four, vehicle group and four treatment groups of ten mice each. […] Each paw was scored daily for inflammation. Therapeutic and prophylactic paws were considered. At study termination mice were euthanized by CO2 inhalation followed by cervical dislocation. Fore paws, hind paws, and knees were removed for microscopy.
Mice were weighed on arthritis days 1, 3, 5, 7, 9, and 11 (prior to necropsy). Daily clinical scores were given for each of the paws (right front, left front, right rear, left rear) on days 1–11 using the following criteria:
After 1–2 days in fixative and 4–5 days in 5% formic acid for decalcification, tissues were trimmed, processed for paraffin embedding, sectioned at 8 µm and stained with toluidine blue. Hind paws and knees were embedded and sectioned in the frontal plane. Two joints from each animal were processed for histopathology evaluation. The joints were then scored by two independent readers as indicated below. When scoring, severity of changes as well as number of individual joints affected were considered. When only 1–3 joints of the paws or ankles out of a possibility of numerous metacarpal/metatarsal/digit or tarsal/tibiotarsal joints were affected, an arbitrary assignment of a maximum score of 1, 2 or 3 for parameters below was given depending on severity of changes. If more than 3 joints were involved, the criteria below were applied to the most severely affected/majority of joints.

SMILES: CN(Cc1cnc2nc(N)nc(N)c2n1)c1ccc(C(=O)N[C@@H](CCC(=O)O)C(=O)O)cc1 [MTX, methotrexate, reference compound]
- % inhibition to Vehicle, Paw Score Total AUC Sum (d1-11) (1.5 mg/kg PO): 12%
- Paw Score Total AUC Sum (d1-11) (1.5 mg/kg PO, group Mean): 28.46
- Paw Score Total AUC Sum (d1-11) (1.5 mg/kg PO, individual animals): 19.25 and 28.75 and 18.25 and 23.38 and 30.63 and 34.25 and 31.00 and 24.88 and 33.25 and 41.00
- % inhibition to Vehicle, Average Paw Score (Day 1, 1.5 mg/kg PO): 0%
- Average Paw Score Per Arthritis Day (All Paws) (Day 1, 1.5 mg/kg PO, group Mean): 0.80
- Average Paw Score Per Arthritis Day (All Paws) (Day 1, 1.5 mg/kg PO, individual animals, 1.5 mg/kg): 0.50 and 1.00 and 1.50
- % inhibition to Vehicle, Average Paw Score (Day 2, 1.5 mg/kg PO): 19%
- Average Paw Score Per Arthritis Day (All Paws) (Day 2, 1.5 mg/kg PO, group Mean): 1.48
- Average Paw Score Per Arthritis Day (All Paws) (Day 2, 1.5 mg/kg PO, individual animals, 1.5 mg/kg): 0.50 and 1.25 and 1.50 and 1.00 and 2.00 and 1.75 and 2.50
- % inhibition to Vehicle, Average Paw Score (Day 3, 1.5 mg/kg PO): 20%
- Average Paw Score Per Arthritis Day (All Paws) (Day 3, 1.5 mg/kg PO, group Mean): 2.13
- Average Paw Score Per Arthritis Day (All Paws) (Day 3, 1.5 mg/kg PO, individual animals, 1.5 mg/kg): 0.75 and 1.75 and 2.00 and 2.50 and 2.75 and 3.00
- % inhibition to Vehicle, Average Paw Score (Day 4, 1.5 mg/kg PO): 10%
- Average Paw Score Per Arthritis Day (All Paws) (Day 4, 1.5 mg/kg PO, group Mean): 2.85
- Average Paw Score Per Arthritis Day (All Paws) (Day 4, 1.5 mg/kg PO, individual animals, 1.5 mg/kg): 1.75 and 3.00 and 2.00 and 2.25 and 2.50 and 2.75 and 4.00
- % inhibition to Vehicle, Average Paw Score (Day 5, 1.5 mg/kg PO): 9%
- Average Paw Score Per Arthritis Day (All Paws) (Day 5, 1.5 mg/kg PO, group Mean): 3.15
- Average Paw Score Per Arthritis Day (All Paws) (Day 5, 1.5 mg/kg PO, individual animals, 1.5 mg/kg): 2.25 and 2.00 and 4.00 and 2.75 and 4.75
- % inhibition to Vehicle, Average Paw Score (Day 6, 1.5 mg/kg PO): 11%
- Average Paw Score Per Arthritis Day (All Paws) (Day 6, 1.5 mg/kg PO, individual animals, 1.5 mg/kg): 2.50 and 2.00 and 2.25 and 4.00 and 2.75 and 4.75
- % inhibition to Vehicle, Average Paw Score (Day 7, 1.5 mg/kg PO): 12%
- Average Paw Score Per Arthritis Day (All Paws) (Day 7, 1.5 mg/kg PO, individual animals, 1.5 mg/kg): 2.50 and 2.00 and 2.25 and 4.00 and 2.75 and 4.75
- % inhibition to Vehicle, Average Paw Score (Day 8, 1.5 mg/kg PO): 13%
- Average Paw Score Per Arthritis Day (All Paws) (Day 8, 1.5 mg/kg PO, individual animals, 1.5 mg/kg): 2.50 and 2.00 and 3.75 and 4.00 and 2.75 and 4.75
- % inhibition to Vehicle, Average Paw Score (Day 9, 1.5 mg/kg PO): 13%
- Average Paw Score Per Arthritis Day (All Paws) (Day 9, 1.5 mg/kg PO, individual animals, 1.5 mg/kg): 2.50 and 2.00 and 3.00 and 4.00 and 4.25 and 2.75 and 3.75 and 5.00
- % inhibition to Vehicle, Average Paw Score (Day 10, 1.5 mg/kg PO): 12%
- Average Paw Score Per Arthritis Day (All Paws) (Day 10, 1.5 mg/kg PO, individual animals, 1.5 mg/kg): 2.50 and 2.00 and 4.75 and 4.50 and 2.75 and 4.00 and 5.00
- % inhibition to Vehicle, Average Paw Score (Day 11, 1.5 mg/kg PO): 12%
- Average Paw Score Per Arthritis Day (All Paws) (Day 11, 1.5 mg/kg PO, individual animals, 1.5 mg/kg): 2.50 and 2.00 and 4.75 and 4.50 and 2.75 and 4.00 and 5.00
- % inhibition to Vehicle, Total AUC Sum (d1-11) (MTX 1.5 mg/kg PO): 21%
- Summed Prophylactic (Non-Enrollment) Paw Score (MTX 1.5 mg/kg PO, Day 1, group mean): 0.00
- Summed Prophylactic (Non-Enrollment) Paw Score (MTX 1.5 mg/kg PO, Day 1, individual animals): 0
- % inhibition to Vehicle, Summed Prophylactic (Non-Enrollment) Paw Score (MTX 1.5 mg/kg PO, Day 2): 38%
- Summed Prophylactic (Non-Enrollment) Paw Score (MTX 1.5 mg/kg PO, Day 2, group mean): 1.60
- Summed Prophylactic (Non-Enrollment) Paw Score (MTX 1.5 mg/kg PO, Day 2, individual animals): 0 and 2 and 1 and 5 and 4
- % inhibition to Vehicle, Summed Prophylactic (Non-Enrollment) Paw Score (MTX 1.5 mg/kg PO, Day 3): 30%
- Summed Prophylactic (Non-Enrollment) Paw Score (MTX 1.5 mg/kg PO, Day 3, group mean): 3.30
- Summed Prophylactic (Non-Enrollment) Paw Score (MTX 1.5 mg/kg PO, Day 3, individual animals): 0 and 3 and 1 and 4 and 7 and 8 and 5 and 2
- % inhibition to Vehicle, Summed Prophylactic (Non-Enrollment) Paw Score (MTX 1.5 mg/kg PO, Day 4): 20%
- Summed Prophylactic (Non-Enrollment) Paw Score (MTX 1.5 mg/kg PO, Day 4, group mean): 5.10
- Summed Prophylactic (Non-Enrollment) Paw Score (MTX 1.5 mg/kg PO, Day 4, individual animals): 3 and 4 and 1 and 6 and 10
- % inhibition to Vehicle, Summed Prophylactic (Non-Enrollment) Paw Score (MTX 1.5 mg/kg PO, Day 5): 19%
- Summed Prophylactic (Non-Enrollment) Paw Score (MTX 1.5 mg/kg PO, Day 5, group mean): 5.90
- Summed Prophylactic (Non-Enrollment) Paw Score (MTX 1.5 mg/kg PO, Day 5, individual animals): 5 and 4 and 1 and 9 and 12 and 10 and 6
- % inhibition to Vehicle, Summed Prophylactic (Non-Enrollment) Paw Score (MTX 1.5 mg/kg PO, Day 6): 21%
- Summed Prophylactic (Non-Enrollment) Paw Score (MTX 1.5 mg/kg PO, Day 6, group mean): 6.00
- Summed Prophylactic (Non-Enrollment) Paw Score (MTX 1.5 mg/kg PO, Day 6, individual animals): 6 and 4 and 1 and 9 and 12 and 10
- % inhibition to Vehicle, Summed Prophylactic (Non-Enrollment) Paw Score (MTX 1.5 mg/kg PO, Day 7): 22%
- Summed Prophylactic (Non-Enrollment) Paw Score (MTX 1.5 mg/kg PO, Day 7, group mean): 6.10
- Summed Prophylactic (Non-Enrollment) Paw Score (MTX 1.5 mg/kg PO, Day 7, individual animals): 6 and 5 and 4 and 1 and 9 and 12 and 10
- % inhibition to Vehicle, Summed Prophylactic (Non-Enrollment) Paw Score (MTX 1.5 mg/kg PO, Day 8): 22%
- Summed Prophylactic (Non-Enrollment) Paw Score (MTX 1.5 mg/kg PO, Day 8, group mean): 6.30
- Summed Prophylactic (Non-Enrollment) Paw Score (MTX 1.5 mg/kg PO, Day 8, individual animals): 6 and 5 and 4 and 2 and 10 and 12
- % inhibition to Vehicle, Summed Prophylactic (Non-Enrollment) Paw Score (MTX 1.5 mg/kg PO, Day 9): 20%
- Summed Prophylactic (Non-Enrollment) Paw Score (MTX 1.5 mg/kg PO, Day 9, group mean): 6.80
- Summed Prophylactic (Non-Enrollment) Paw Score (MTX 1.5 mg/kg PO, Day 9, individual animals): 6 and 5 and 4 and 3 and 11 and 13 and 10 and 7
- % inhibition to Vehicle, Summed Prophylactic (Non-Enrollment) Paw Score (MTX 1.5 mg/kg PO, Day 10): 16%
- Summed Prophylactic (Non-Enrollment) Paw Score (MTX 1.5 mg/kg PO, Day 10, group mean): 7.40
- Summed Prophylactic (Non-Enrollment) Paw Score (MTX 1.5 mg/kg PO, Day 10, individual animals): 6 and 5 and 4 and 14 and 10 and 8
- % inhibition to Vehicle, Summed Prophylactic (Non-Enrollment) Paw Score (MTX 1.5 mg/kg PO, Day 11): 16%
